# Results: ChEMBL document CHEMBL1667853, “Design and synthesis of potent Gram-negative specific LpxC inhibitors” (Bioorg Med Chem Lett, 2011)
# Experiments:
# [1] = target: T1, UDP-3-O-acyl-N-acetylglucosamine deacetylase (Escherichia coli K-12, UniProt P0A725); test: Inhibition of Escherichia coli LpxC
# T1 sequence (P0A725 whole entry): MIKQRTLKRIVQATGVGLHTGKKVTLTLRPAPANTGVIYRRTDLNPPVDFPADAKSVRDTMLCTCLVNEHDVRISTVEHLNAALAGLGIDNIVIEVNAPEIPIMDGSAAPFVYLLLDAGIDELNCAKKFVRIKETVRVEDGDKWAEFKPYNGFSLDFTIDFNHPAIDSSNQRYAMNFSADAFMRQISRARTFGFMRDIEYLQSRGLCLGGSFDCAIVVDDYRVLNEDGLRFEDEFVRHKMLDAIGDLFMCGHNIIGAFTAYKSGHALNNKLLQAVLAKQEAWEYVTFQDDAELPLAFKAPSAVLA
# Escherichia coli [2] = test: Antimicrobial activity against Escherichia coli ATCC 25922 by broth dilution assay; format: functional
# Escherichia coli [3] = test: Antimicrobial activity against Escherichia coli HS294 by broth dilution assay; format: functional
# Escherichia coli [4] = test: Antimicrobial activity against multidrug-resistant Escherichia coli by broth dilution assay; format: functional
# Pseudomonas aeruginosa [5] = test: Antimicrobial activity against multidrug-resistant Pseudomonas aeruginosa by broth dilution assay; format: functional
# Klebsiella pneumoniae [6] = test: Antimicrobial activity against ESBL producing Klebsiella pneumoniae by broth dilution assay; format: functional
# Klebsiella pneumoniae [7] = test: Antimicrobial activity against wild type Klebsiella pneumoniae by broth dilution assay; format: functional
# Escherichia coli [8] = test: Antimicrobial activity against wild type Escherichia coli by broth dilution assay; format: functional
# Escherichia coli [9] = test: Antimicrobial activity against ESBL producing Escherichia coli by broth dilution assay; format: functional
# [10] = test system: Stenotrophomonas maltophilia; test: Antimicrobial activity against wild type Stenotrophomonas maltophilia by broth dilution assay; format: functional
# Pseudomonas aeruginosa [11] = test: Antimicrobial activity against wild type Pseudomonas aeruginosa by broth dilution assay; format: functional
# Enterobacter cloacae = test: Antimicrobial activity against ESBL producing Enterobacter cloacae by broth dilution assay; format: functional
SMILES,IC50 [1],MIC (Escherichia coli [2]),MIC (Escherichia coli [3]),also measured
CCCc1cc(C2=N[C@@H](C(=O)NO)CO2)cc(OC)c1OC,–,–,–,Ki [1]: 50 nM
CCCCCCCCCCCCCC(=O)O[C@@H]1[C@@H](CC(=O)NO)CO[C@H](CO)[C@H]1O,–,–,–,Ki [1]: 650 nM
C[C@@H](O)[C@H](C(=O)NO)N1Cc2cc(C#Cc3ccccc3)ccc2C1=O,130 nM,–,–,–
C[C@@H](O)[C@H](C(=O)NO)n1[nH]c2cc(C#Cc3ccccc3)ccc2c1=O,200 nM,–,–,–
C[C@@H](O)[C@H](C(=O)NO)N1Cc2cc(Br)ccc2C1=O,> 61000 nM,–,–,–
C[C@@H](O)[C@H](C(=O)NO)N1Cc2cc(-c3ccccc3)ccc2C1=O,41000 nM,–,–,–
C[C@@H](O)[C@H](C(=O)NO)N1Cc2ccc(C#Cc3ccccc3)cc2C1=O,34000 nM,–,–,–
C[C@@H](O)[C@H](C(=O)NO)N1Cc2cc(-c3ccc(-c4ccccc4)cc3)ccc2C1=O,50 nM,–,–,–
C[C@@H](O)[C@H](C(=O)NO)N1Cc2cc(-c3ccc(C#Cc4ccccc4)cc3)ccc2C1=O,29 nM,–,–,–
C[C@@H](O)[C@H](C(=O)NO)N1Cc2cc(C#Cc3ccc(-c4ccccc4)cc3)ccc2C1=O,13 nM,–,–,–
C[C@@H](O)[C@H](C(=O)NO)N1Cc2cc(C#Cc3cccc(-c4ccccc4)c3)ccc2C1=O,971 nM,–,–,–
C[C@@H](O)[C@@H](NC(=O)NCc1ccc(C#Cc2ccccc2)cc1)C(=O)NO,201 nM,> 100 µg/mL,12.5 µg/mL,–
C[C@@H](O)[C@@H](NC(=O)NCCc1ccc(C#Cc2ccccc2)cc1)C(=O)NO,1270 nM,> 100 µg/mL,50 µg/mL,–
C[C@@H](O)[C@@H](NC(=O)N1CCC(c2ccc(C#Cc3ccccc3)cc2)C1)C(=O)NO (some centres undefined),36 nM,100 µg/mL,12.5 µg/mL,–
C[C@@H](O)[C@@H](NC(=O)N1CCC(c2cccc(C#Cc3ccccc3)c2)C1)C(=O)NO (some centres undefined),146 nM,100 µg/mL,1.56 µg/mL,–
C[C@@H](O)[C@@H](NC(=O)N1CCCC(c2ccc(C#Cc3ccccc3)cc2)C1)C(=O)NO (some centres undefined),387 nM,> 100 µg/mL,25 µg/mL,–
C[C@@H](O)[C@@H](NC(=O)N1CCC(c2ccc(C#Cc3ccccc3)cc2)CC1)C(=O)NO,–,12.5 µg/mL,0.8 µg/mL,–
C[C@@H](O)[C@@H](NC(=O)N1CCN(c2ccc(C#Cc3ccccc3)cc2)CC1)C(=O)NO,2.4 nM,1.56 µg/mL,0.2 µg/mL,–
C[C@@H](O)[C@@H](NC(=O)N1CCN(c2ccc(-c3ccccc3)cc2)CC1)C(=O)NO,5.6 nM,3.13 µg/mL,0.8 µg/mL,–
C[C@@H](O)[C@@H](NC(=O)N1CCC(c2ccccc2)CC1)C(=O)NO,3940 nM,–,12.5 µg/mL,–
C[C@@H](O)[C@@H](NC(=O)N1CCC(C#Cc2ccccc2)CC1)C(=O)NO,207 nM,25 µg/mL,3.13 µg/mL,–
C[C@@H](O)[C@@H](NC(=O)N1CCN(c2ccc(C#Cc3ccccn3)cc2)CC1)C(=O)NO,10 nM,> 100 µg/mL,6.25 µg/mL,–
C[C@@H](O)[C@@H](NC(=O)N1CCN(c2ccc(C#Cc3cccnc3)cc2)CC1)C(=O)NO,63 nM,100 µg/mL,12.5 µg/mL,–

SMILES,IC50 [1],MIC (Escherichia coli [2]),MIC (Escherichia coli [3]),also measured
C[C@@H](O)[C@@H](NC(=O)N1CCN(c2ccc(C#Cc3ccncc3)cc2)CC1)C(=O)NO,4 nM,3.13 µg/mL,0.8 µg/mL,–
C[C@@H](O)[C@@H](NC(=O)N1CCN(c2ccc(C#Cc3cccs3)cc2)CC1)C(=O)NO,21 nM,25 µg/mL,1.56 µg/mL,–
C[C@@H](O)[C@@H](NC(=O)N1CCN(c2ccc(C#Cc3cnccn3)cc2)CC1)C(=O)NO,136 nM,> 100 µg/mL,6.25 µg/mL,–
C[C@@H](O)[C@@H](NC(=O)N1CCN(c2ccc(-c3cncs3)cc2)CC1)C(=O)NO,12 nM,100 µg/mL,3.13 µg/mL,–
C[C@@H](O)[C@@H](NC(=O)N1CCN(c2ccc(-c3ccc(N4CCOCC4)cc3)cc2)CC1)C(=O)NO,16.3 nM,6.25 µg/mL,3.13 µg/mL,–
C[C@@H](O)[C@@H](NC(=O)N1CCN(c2ccc(C#Cc3ccc(O)cc3)cc2)CC1)C(=O)NO,4 nM,1.56 µg/mL,0.1 µg/mL,–
C[C@@H](O)[C@@H](NC(=O)N1CCN(c2ccc(C#Cc3ccc(N)cc3)cc2)CC1)C(=O)NO,26 nM,3.13 µg/mL,1.56 µg/mL,–
C[C@@H](O)[C@@H](NC(=O)N1CCN(c2ccc(C#Cc3ccc(Cl)cc3)cc2)CC1)C(=O)NO,5 nM,6.25 µg/mL,1.56 µg/mL,–
C[C@@H](O)[C@@H](NC(=O)N1CCN(c2ccc(C#Cc3ccc(F)cc3)cc2)CC1)C(=O)NO,7 nM,3.13 µg/mL,0.8 µg/mL,–
C[C@@H](O)[C@@H](NC(=O)N1CCN(c2ccc(C#Cc3ccc(C(F)(F)F)cc3)cc2)CC1)C(=O)NO,10.4 nM,12.5 µg/mL,1.56 µg/mL,–
C[C@@H](O)[C@@H](NC(=O)N1CCN(c2ccc(C#Cc3ccc(CC#N)cc3)cc2)CC1)C(=O)NO,11 nM,6.25 µg/mL,0.8 µg/mL,–
C[C@@H](O)[C@@H](NC(=O)N1CCN(c2ccc(C#Cc3ccc(CO)cc3)cc2)CC1)C(=O)NO,12 nM,12.5 µg/mL,0.4 µg/mL,–
C[C@@H](O)[C@@H](NC(=O)N1CCN(c2ccc(C#Cc3ccc(CN4CCOCC4)cc3)cc2)CC1)C(=O)NO,14 nM,6.25 µg/mL,1.56 µg/mL,–
C[C@@H](O)[C@@H](NC(=O)N1CCN(c2ccc(C#Cc3ccc(N4CCOCC4)cc3)cc2)CC1)C(=O)NO,3 nM,25 µg/mL,0.1 µg/mL,–
C[C@@H](O)[C@@H](NC(=O)N1CCN(c2ccc(C#Cc3ccc(N4CCNCC4)cc3)cc2)CC1)C(=O)NO,23.3 nM,6.25 µg/mL,0.4 µg/mL,–
CC(C)(O)[C@@H](NC(=O)N1CCC(c2ccc(-c3ccccc3)cc2)CC1)C(=O)NO,2.5 nM,0.8 µg/mL,0.2 µg/mL,–
CC(C)(O)[C@@H](NC(=O)N1CCN(c2ccc(-c3ccccc3)cc2)CC1)C(=O)NO,7 nM,3.13 µg/mL,0.8 µg/mL,–
NC[C@@H](NC(=O)N1CCC(c2ccc(C#Cc3ccccc3)cc2)CC1)C(=O)NO,163 nM,12.5 µg/mL,6.25 µg/mL,–
CC1(C)S[C@@H]2[C@H](NC(=O)[C@H](N)c3ccccc3)C(=O)N2[C@H]1C(=O)O [AMPICILLIN],–,–,–,MIC (Escherichia coli [4]): > 8 µg/mL; MIC (Pseudomonas aeruginosa [5]): > 256 µg/mL; MIC (Klebsiella pneumoniae [6]): > 32 µg/mL; MIC (Klebsiella pneumoniae [7]): > 32 µg/mL; MIC (Escherichia coli [8]): 4 µg/mL; MIC (Escherichia coli [9]): > 32 µg/mL; MIC [10]: > 32 µg/mL; MIC (Pseudomonas aeruginosa [11]): 4 µg/mL; MIC (Enterobacter cloacae): > 32 µg/mL
CC[C@H]1OC(=O)[C@H](C)[C@@H](O[C@H]2C[C@@](C)(OC)[C@@H](O)[C@H](C)O2)[C@H](C)[C@@H](O[C@@H]2O[C@H](C)C[C@H](N(C)C)[C@H]2O)[C@](C)(O)C[C@@H](C)CN(C)[C@H](C)[C@@H](O)[C@]1(C)O [AZITHROMYCIN],–,–,–,MIC (Escherichia coli [4]): 32 µg/mL; MIC (Pseudomonas aeruginosa [5]): 32 µg/mL; MIC (Pseudomonas aeruginosa [11]): 4 µg/mL
O=C(N[C@H](CO)[C@H](O)c1ccc([N+](=O)[O-])cc1)C(Cl)Cl [CHLORAMPHENICOL],–,–,–,MIC (Escherichia coli [4]): > 32 µg/mL; MIC (Pseudomonas aeruginosa [5]): > 256 µg/mL; MIC (Escherichia coli [8]): 2 µg/mL; MIC (Pseudomonas aeruginosa [11]): 2 µg/mL
O=C(O)c1cn(C2CC2)c2cc(N3CCNCC3)c(F)cc2c1=O [CIPROFLOXACIN],–,–,–,MIC (Escherichia coli [4]): > 32 µg/mL; MIC (Pseudomonas aeruginosa [5]): > 8 µg/mL; MIC (Klebsiella pneumoniae [7]): 1 µg/mL; MIC [10]: 0.016 µg/mL; MIC (Pseudomonas aeruginosa [11]): 0.012 µg/mL
CN(C)[C@@H]1C(O)=C(C(N)=O)C(=O)[C@@]2(O)C(O)=C3C(=O)c4c(O)cccc4[C@@](C)(O)[C@H]3C[C@@H]12 [TETRACYCLINE],–,–,–,MIC (Escherichia coli [4]): > 2 µg/mL; MIC (Pseudomonas aeruginosa [5]): 16 µg/mL; MIC (Escherichia coli [8]): 1 µg/mL; MIC (Pseudomonas aeruginosa [11]): 1 µg/mL
